Experiments:
[1] = reported by Higgs et al., Biochemical Pharmacology 28 1959 (1979); cited from earlier work
[2] = "writhing syndrome" test for analgesic activity
Excerpt: A method employed for measuring the in vivo activity of the compounds of the present invention is the "writhing syndrome" test for analgesic activity as described by Seigmund, et al., Proc. Soc, Exp. Biol. and Med., 95:729 (1957) with modifications. Representative compounds of the present invention which are active when tested by the "writhing syndrome" test are: 2-(3-Amino-2-pyrazolin-1-yl)benzothiazole 2-(3-Amino-5-methyl-2-pyrazolin-1-yl)benzothiazole

Structure (SMILES) | anti-inflammatory activity [1] | analgesic activity in vivo, "writhing syndrome" test [2]
NC1=NN(c2cccc(C(F)(F)F)c2)CC1 [BW 755C, 3-amino-1-[m-(trifluoromethyl)phenyl]-2-pyrazoline] | anti-inflammatory activity | 
CC1CC(N)=NN1c1nc2ccccc2s1 (stereo not drawn) [Example 13, 2-(3-Amino-5-methyl-2-pyrazolin-1-yl)benzothiazole] |  | active
NC1=NN(c2nc3ccccc3s2)CC1 [Example 11, 2-(3-Amino-2-pyrazolin-1-yl)benzothiazole] |  | active

Reference: patent US4622401A, “Heterocyclic substituted-amino-pyrazolines” (American Cyanamid Company, priority 1982, dated 1986)
